Laboratory results as given in patent US12655094B2, “Cannabinoid sulfate esters, their salts and uses thereof” (LONDON PHARMACEUTICALS AND RESEARCH CORPORATION, priority 2020, dated 2026).
Structures can show the parent of a compound that is named as a salt.

Experiments:
[1] = Pharmacokinetic profile of cannabinoid sulfate esters compared to CBD; conditions: for Cmax / Tmax / half-life: plasma
Description: The PK profile of certain exemplary cannabinoid sulfate esters, including the half-life (T1/2), maximum plasma concentration (Cmax), and time to reach Cmax (Tmax), is shown compared to CBD in the table below.

intraocular pressure = conditions: normotensive rabbit; cited from earlier work
[2] = pH 7.4; cited from earlier work

| SMILES | Cmax [1] | Tmax [1] | half-life [1] | T1/2 ([1]; half-life) | Cmax ([1]; Cmax, maximum plasma concentration) | intraocular pressure (intraocular pressure) | increase of aqueous solubility over the parent endocannabinoid [2] |
| --- | --- | --- | --- | --- | --- | --- | --- |
| C=C(C)[C@@H]1CCC(C)=C[C@H]1c1c(O)cc(CCCCC)cc1OS(=O)(=O)O [CBD sulfate morpholinium salt, morpholin-4-ium (1′R,2′R)-6-hydroxy-5′-methyl-4-pentyl-2′-(prop-1-en-2-yl)-1′,2′,3′,4′-tetrahydro-[1,1′-biphenyl]-2-yl sulfate] | 10 ng/mL | 1 h | 1960 min |  |  |  |  |
| C=C(C)[C@@H]1CCC(C)=C[C@H]1c1c(O)cc(CCCCC)cc1O [CBD, cannabidiol, reference compound] | 4.8 ng/mL | 0.5 h | 234 min |  |  |  |  |
| C=C(C)[C@@H]1CCC(C)=C[C@H]1c1c(O)cc(CCCCC)cc1OS(=O)(=O)O [CBD sulfate piperazinium salt, piperazin-1-ium (1′R,2′R)-6-hydroxy-5′-methyl-4-pentyl-2′-(prop-1-en-2-yl)-1′,2′,3′,4′-tetrahydro-[1,1′-biphenyl]-2-yl sulfate] |  | 1 h |  | 3.0 h | 19 ng/mL |  |  |
| CCCCC/C=C\C/C=C\C/C=C\C/C=C\CCCC(=O)NCCOP(=O)(O)O [phosphate ester pro-drug of anandamide] |  |  |  |  |  | reduced the intraocular pressure | > 16 500 fold |
| C=C(C)[C@@H]1CCC(C)=C[C@H]1c1c(O)cc(CCCCC)cc1OS(=O)(=O)[O-].[Na+] [CBD sulfate sodium salt, sodium (1′R,2′R)-6-hydroxy-5′-methyl-4 pentyl-2′-(prop-1-en-2-yl)-1′,2′,3′,4′-tetrahydro-[1,1′-biphenyl]-2-yl sulfate] | 12 ng/mL | 1 h | 174 min |  |  |  |  |
